How the values were obtained:
chymotrypsin = assay: SDPR surface display protease resistance, anti-6xHis staining, chymotrypsin; assay type: cell-based; settings: HEK-293 cells, up to 40 μg/ml chymotrypsin for 20 minutes
Description: Soluble peptides were exposed to 500 U/mL porcine trypsin and analyzed by HPLC. Protease resistance was also assessed by using SDPR-displaying peptides. The SDPR vector is similar to the a surface display GFP FasL(SDGF) vector, but contains a C-terminal 6×His tag (SEQ ID NO: 180) and all basic or aromatic amino acid residues on the stalk removed. Protease resistance is then tested by incubation of cells displaying peptides with trypsin or chymotrypsin, followed by incubation in 10 mM DTT, and staining with an anti-6×His fluorophore-labeled antibody (“6×His” disclosed as SEQ ID NO: 180). If peptides are uncleaved, they retain the His tag and are stained with by the antibody. A control protease-sensitive knottin peptide (SK) was used as a positive control. Cells displaying peptides were treated with up to 40 μg/ml trypsin or chymotrypsin.
To determine the impact of protease treatment or reducing condition on the function of the peptides, i.e., binding activity, various binding or functional assays can be performed. […] After treatment with the protease and reducing agent, any linearized peptide product or degradation product resulting from reduction and/or proteolysis by treatment with a protease can be detected or analyzed by staining against the 6×His tag (SEQ ID NO: 180). […]

TEAD protein = assay: Binding of surface-displayed (SDGF) peptide to biotinylated target protein after reducing agent, flow cytometry; assay type: cell-based; settings: HEK-293 cells displaying peptide, 20 nM biotinylated target protein
Description: Designed or engineered peptides of this disclosure were also tested to evaluate if the peptides' binding activity to their target protein (e.g., TEAD protein) was affected by exposure to reducing conditions. HEK-293T suspension cells were transfected with a surface display GFP FasL(SDGF) vector comprising SEQ ID NO: 39 (SDGF-SEQ ID NO: 39) or SDGF vector comprising SEQ ID NO: 43 (SDGF-SEQ ID NO: 43) construct. Cultures were grown for two days, followed by incubation in 10 mM GSH or 10 mM DTT. Finally, cells were stained with biotinylated-target protein to evaluate the binding activity of a peptide to the target protein. FIG. 15 illustrates the stability of peptides of SEQ ID NO: 39 and SEQ ID NO: 43 after exposure to a reducing agent. Each peptide was expressed on a cell surface and tested for binding to a target protein after cells expressing SDGF-SEQ ID NO: 43 or SEQ ID NO: 39 were exposed to a reducing agent. FIG. 15A illustrates a flow cytometry plot showing binding of HEK-293 suspension cells transfected with SDGF-SEQ ID NO: 39 (GFP) incubated for 5 minutes in PBS, 10 mM DTT, or 10 mM reduced glutathione (GSH) before staining with 20 nM biotinylated target protein and 20 nM AF647-streptavidin. FIG. 15B illustrates a flow cytometry plot showing binding of HEK-293 suspension cells transfected with SDGF-SEQ ID NO: 43 (GFP) incubated for 5 minutes in PBS, 10 mM DTT, or 10 mM reduced glutathione (GSH) before staining with 20 nM biotinylated target protein and 20 nM AF647-streptavidin. FIG. 15C illustrates quantification of the AF647 mean fluorescence intensity (MFI) of cells falling within the “slice” gate shown in FIG. 15A and FIG. 15B. […] In other words, peptides of SEQ ID NO: 39 and SEQ ID NO: 43 were resistant to reduction by GSH.

GSPDEYIERAKECCKKQDIQCCLRIFDESKDPNVMLICLFCW [SEQ ID NO: 43]
resistance of surface-displayed peptide to cleavage by chymotrypsin (chymotrypsin): partially resistant | binding to target protein after DTT treatment (TEAD protein; 5 minutes in 10 mM DTT): no loss in binding | binding to target protein after GSH treatment (TEAD protein; 5 minutes in 10 mM GSH): no loss in binding

From patent publication US20190375786A1, “STABLE PEPTIDES AND METHODS OF USE THEREOF” (Fred Hutchinson Cancer Research Center, priority 2016, published 2019)
